Molecules are shown by their SMILES.

This data set is described as follows: Determination of the Vitamin C stability in the cream base at 45° C. It counts as physicochemical. The following applies: cream with 5-25 wt % Vitamin C, after 30 days at 45° C., protected from light. The procedure: The method consists of introducing 20 to 30 mg of freeze-dried CHITOXAN™ loaded with Vitamin C in a 50 ml centrifuge tube together with 40 ml of the extraction solvent. The mixture is magnetically stirred for 60 minutes. The suspension formed is centrifuged (4000 rpm) and the supernatant is analysed. All operations are done in absence of light.
This determination requires the establishment of a calibration curve at a maximum absorption wavelength using a UV-vis spectrophotometer. A standard is prepared with the same solution (and solvent) initially used to introduce the Vitamin C within the CHITOXAN™. Experimentation has shown an absorption maximum at 243 nm for Vitamin C at 98% purity obtained from ALDRICH.
The calibration curve is constructed at 243 nm as follows. A solution of 1.3 mg/ml of Vitamin C in the solvent is prepared in a graduated cylinder. The solution is prepared just before analysis. By successive dilutions, the absorption versus concentration calibration curve (mg/ml) is thus measured.
The concentration of Vitamin C in the supernatant obtained via extraction is determined at 243 nm using the calibration curve. […]
10 g of the preparation obtained by inclusion of CHITOXAN™—Vit. […] Samples not immediately analysed were kept frozen at −4° C.
The aliquots were analysed with the method described earlier (always using the extraction solvent). […]

Consider `O=C1O[C@H]([C@@H](O)CO)C(O)=C1O` [free Vitamin C, Vitamin C], for which the “coloration of the cream” value is “an orange coloration appeared” and the “degradation of Vitamin C” value was 98%.

The values above are taken from patent US6964772B1, “Chitosan-xanthan based polyionic hydrogels for stabilization and controlled release of vitamins” (Kemestrie Inc., priority 1998, dated 2005).
